Test results reported in US20040176349A1, “Antibacterial composition” (priority 2001, published 2004).
In brackets after ≈: the same amount, converted by molar mass.

Columns and labels:
[1] = test system: E.faecalis 78097 (van B); test: Checkerboard microdilution MIC with PFOB, Table 2; assay type: cell-based; details: E.faecalis 78097 (van B); alone
Text: (§1) The aim of the study was to detect any synergy between PFOB and the other antibiotics. For the purposes of the study, synergy was defined in accordance with the FIC (fractional inhibitory concentration) index, as disclosed by Lorian (1991, In “Antibiotics in Laboratory Medicine” 3rd edition, Eds. Williams & Wilkins; esp. p 434-443). In essence, if the combination of test compounds gives at least a 4-fold reduction in the FIC value for each compound, then a synergy may be considered to exist (i.e. FIC of the combination <0.5=synergy; FIC 0.5-2.0=“indifference”; and FIC >2=antagonism).
(§2) In Table 2, results in the checkerboard indicating synergy are hatched, and specific optimum synergistic combinations are boxed.

[2] = test system: E. faecalis ATCC 29212; test: Checkerboard microdilution MIC with PFOB, Table 2; assay type: cell-based; details: E. faecalis ATCC 29212; alone
Text: as §1, §2

[3] = test system: E. faecalis 5659 (vanA); test: Checkerboard microdilution MIC with PFOB, Table 2; assay type: cell-based; details: E. faecalis 5659 (vanA); alone
Text: as §1, §2

[4] = test system: VRE 300 2043; test: MIC, microbroth dilution (NCCLS), Table 1; assay type: cell-based, Enterococcus; details: compound alone; VRE 300 2043, vancomycin-resistant
Procedure: (§3) The minimum inhibitory concentration (MIC) of the compounds was determined using the microbroth dilution technique in accordance with NCCLS guidelines, employing Mueller-Hinton broth (National Committee for Clinical Laboratory Standards, NCCLS, 1995 “Methods for dilution antimicrobial susceptibility tests for bacteria that grow aerobically”—approved standard M7-A5).
(§4) The compounds were tested in isolation, at different concentrations.

[5] = test system: VRE 1662; test: MIC, microbroth dilution (NCCLS), Table 1; assay type: cell-based, Enterococcus; details: compound alone; VRE 1662, vancomycin-resistant
Procedure: as §3, §4

[6] = test system: VRE 300 1590; test: MIC, microbroth dilution (NCCLS), Table 1; assay type: cell-based, Enterococcus; details: compound alone; VRE 300 1590, vancomycin-resistant
Procedure: as §3, §4

[7] = test system: VRE 300 1562; test: MIC, microbroth dilution (NCCLS), Table 1; assay type: cell-based, Enterococcus; details: compound alone; VRE 300 1562, vancomycin-resistant
Procedure: as §3, §4

[8] = test system: Enterococcus strains; test: MIC against Enterococcus strains, summary of Example 1; assay type: cell-based; details: compound alone; all strains of Table 1; in words
Procedure: as §3, §4

[9] = test system: E. faecalis NCTC 5957; test: MIC, microbroth dilution (NCCLS), Table 1; assay type: cell-based; details: compound alone; E. faecalis NCTC 5957, vancomycin-susceptible
Procedure: as §3, §4

[10] = test system: E. faecalis SFZ; test: MIC, microbroth dilution (NCCLS), Table 1; assay type: cell-based; details: compound alone; E. faecalis SFZ, vancomycin-susceptible
Procedure: as §3, §4

[11] = test system: E. faecium NCTC 7171; test: MIC, microbroth dilution (NCCLS), Table 1; assay type: cell-based; details: compound alone; E. faecium NCTC 7171, vancomycin-susceptible
Procedure: as §3, §4

[12] = test system: E. faecalis Phillips; test: MIC, microbroth dilution (NCCLS), Table 1; assay type: cell-based; details: compound alone; E. faecalis Phillips, vancomycin-susceptible
Procedure: as §3, §4

[13] = test system: E. hirae ATCC 10541; test: MIC, microbroth dilution (NCCLS), Table 1; assay type: cell-based; details: compound alone; E. hirae ATCC 10541, vancomycin-susceptible
Procedure: as §3, §4

[14] = test system: E. faecalis 24592; test: MIC, microbroth dilution (NCCLS), Table 1; assay type: cell-based; details: compound alone; E. faecalis 24592, vancomycin-susceptible
Procedure: as §3, §4

[15] = test system: E. faecalis SFZ (vancomycin-sensitive isolate, VSE); test: Time-kill experiment (viable count); assay type: cell-based; details: FIG. 2, ceftazidime alone at 128 mg/L, PFOB alone at 64 mg/L
Text: FIG. 2 is a graph of Log viable count (cfu per ml) against time (in hours) for the VSE isolate in the presence or absence of the drugs. […] The isolates used in the Example are purely illustrative and not especially unusual.

[16] = test system: enterococcal penicillin binding proteins (PBPs); test: Radiolabelled penicillin competition assay for PBP affinity; parameters: species or system Enterococcus; details: in words
Procedure: Further experiments were conducted in an attempt to determine the mechanism of the unexpected synergy between antibiotics (as exemplified by Ceftazidime) and compounds in accordance with general formula I or II (as exemplified by PFOB). The affinity of PFOB for enterococcal penicillin binding proteins (PBPs) was investigated using a conventional radiolabelling assay (Boulton & Orr 1983 “Detection of bacterial penicillin binding proteins and their role in the interpretation of the mode of action of beta-lactam antibiotics” In “Antibiotics: Assessment of antimicrobial activity and resistance” Eds. Denver & Quesnel. Society for […], Technical Series 18, pp161-182, Academic Press”). In this assay, the inner bacterial membrane containing the PBPs was extracted, exposed to differing concentrations of test agent (i.e. PFOB) and excess radiolabelled penicillin, followed by separation and visualisation of the PBPs using gel electrophoresis and fluorography.

[17] = test system: E. faecalis ATCC 10541; test: Checkerboard microdilution MIC with PFOB, Table 2; assay type: cell-based; details: E. faecalis ATCC 10541; alone
Text: The aim of the study was to detect any synergy between PFOB and the other antibiotics. For the purposes of the study, synergy was defined in accordance with the FIC (fractional inhibitory concentration) index, as disclosed by Lorian (1991, In “Antibiotics in Laboratory Medicine” 3rd edition, Eds. Williams & Wilkins; esp. p 434-443).

C[C@@H](O)[C@H]1C(=O)N2C(C(=O)O)=C(C(C)(C)CCCN)O[C@H]12 [(1′R, 5R, 6R)-2-(4-amino-1,1-dimethylbutyl)-6-(1′-hydroxyethyl) oxapenem-3-carboxylic acid]
MIC (alone) of PFOB [1]: >32 µg/mL | MIC (alone) of PFOB [2]: >32 µg/mL | MIC (alone) of PFOB [3]: >32 µg/mL | MIC [4]: 32 µg/mL (≈ 107 µM) | MIC [5]: >128 µg/mL | MIC [6]: >128 µg/mL | MIC [7]: 128 µg/mL (≈ 429 µM) | activity in isolation against the Enterococcus strains tested [8]: no significant activity | MIC [9]: 32 µg/mL (≈ 107 µM) | MIC [10]: 64 µg/mL (≈ 215 µM) | MIC [11]: 16 µg/mL (≈ 53.6 µM) | MIC [12]: 32 µg/mL (≈ 107 µM) | MIC [13]: 16 µg/mL (≈ 53.6 µM) | MIC [14]: 32 µg/mL (≈ 107 µM) | effect on growth (viable count, time-kill) [15]: some inhibitory effect on growth | affinity for PBPs compared with clavulanic acid ([16]; FIG. 4A versus FIG. 4B): much higher affinity | binding to PBPs in competition with radiolabelled penicillin ([16]; FIG. 4A, PFOB concentration of 3 mg/L): nearly all PBPs are bound by PFOB, except PBP3 | MIC (alone) of PFOB [17]: 16 µg/mL
